In patent US20240325531A1, “CAR T/NK-CELLS FOR USE IN THE TREATMENT OF INVASIVE FUNGAL INFECTIONS” (UNIVERSITAT DE BARCELONA, priority 2021, published 2024):

Columns and labels:
[1] = test system: acute panmyelosis with myelofibrosis; assay: Patient's earlier treatment of relapsed haematological disease; assay type: in vivo, human; conditions: venetoclax plus azacytidine, after the first two cycles, one patient
[2] = test system: Fusarium petroliphilum; assay: Antifungal resistance tests (MIC) on the patient's mold; assay type: cell-based; conditions: Fusarium petroliphilum from the patient's skin biopsy; no clinical breakpoints established; read-out: minimum inhibitory concentrations (MIC)
Procedure: The patient was admitted to the hospital for fever, muscle pain, and polytopic erythematous plaques/nodules on the trunk and extremities, some of them with central pustules. […] Blood cultures were negative. Galactomannan and β-D-glucan were negative. […] Bronchoscopy was performed but all results were negative.

[3] = test system: Fusarium petroliphilum; assay: Treatment of a patient with fusariosis (compassionate, first-in-human use); assay type: in vivo; conditions: one patient; liposomal amphotericin-B, terbinafine and voriconazole given together, before cell therapy
Procedure: Since admission, liposomal amphotericin-B was initiated and after fusariosis diagnosis, terbinafine and voriconazole were added.

| Structure (SMILES) | response of haematological disease [1] | MIC [2] [µg/mL] | clinical course under antifungal drugs [3] |
| --- | --- | --- | --- |
| Nc1ncn([C@@H]2O[C@H](CO)[C@@H](O)[C@H]2O)c(=O)n1 [azacytidine] | partial response |  |  |
| C[C@@H](c1nc(-c2ccc(C#N)cc2)cs1)[C@](O)(Cn1cncn1)c1cc(F)ccc1F [isavuconazole] |  | > 8 |  |
| CC[C@@H]([C@H](C)O)n1ncn(-c2ccc(N3CCN(c4ccc(OC[C@@H]5CO[C@@](Cn6cncn6)(c6ccc(F)cc6F)C5)cc4)CC3)cc2)c1=O [posaconazole] |  | > 8 |  |
| CN(C/C=C/C#CC(C)(C)C)Cc1cccc2ccccc12 [terbinafine] |  |  | remained febrile, with appearance of new skin lesions and mild worsening of the chest CT images |
| C[C@@H](c1ncncc1F)[C@](O)(Cn1cncn1)c1ccc(F)cc1F [voriconazole] |  | > 8 | remained febrile, with appearance of new skin lesions and mild worsening of the chest CT images |
